Where “and” joins values, the source holds several entries; their conditions need not be identical. Equal entries are not always repeated.
Assays:
[1] = system: Plasmodium falciparum; assay: NOVARTIS: Inhibition of Plasmodium falciparum 3D7 (drug-susceptible) proliferation in erythrocyte-based infection assay; assay type: functional, organism-based
[2] = system: Plasmodium falciparum; assay: NOVARTIS: Inhibition of Plasmodium falciparum W2 (drug-resistant) proliferation in erythrocyte-based infection assay; assay type: functional, organism-based; settings: read-out: EC50
[3] = NOVARTIS: Cytotoxicity against human hepatocellular carcinoma cell line (Huh7); assay type: toxicity, cell-based, Huh-7; settings: Huh7 cells (hepatocellular carcinoma cell line)

COc1cc(/C=C2\CC/C(=C\c3cc(OC)c(OC)c(OC)c3)C2=O)cc(OC)c1OC
EC50 ([1]; Plasmodium falciparum, 3D7): 458 nM
EC50 ([2]; Plasmodium falciparum, W2): 457 nM
CC50 [3]: 873 nM

OCCCNc1cc(-c2ccnc(Nc3cccc(Cl)c3)n2)ccn1
EC50 ([1]; Plasmodium falciparum, 3D7): 232 nM
EC50 ([2]; Plasmodium falciparum, W2): 186 nM
CC50 [3]: 269 nM

Cc1cc(Nc2cc3ccccc3cc2O)n2ncnc2n1
EC50 ([1]; Plasmodium falciparum, 3D7): 1340 nM
EC50 ([2]; Plasmodium falciparum, W2): 1290 nM
CC50 [3]: 1750 nM

CCOc1ccc(Nc2nc(N)c3ccccc3n2)cc1
EC50 ([1]; Plasmodium falciparum, 3D7): 862 nM
EC50 ([2]; Plasmodium falciparum, W2): 1580 nM
CC50 [3]: 2370 nM

Cc1ccc(Cl)cc1-n1c(SCc2ccccc2)nnc1C(Cc1ccccc1)NC(=O)C12CC3CC(CC(C3)C1)C2 (centres undefined)
EC50 ([1]; Plasmodium falciparum, 3D7): > 1250 nM
EC50 ([2]; Plasmodium falciparum, W2): > 954 nM
CC50 [3]: 1130 nM

CC(C)c1cccc(C(C)C)c1NC(=O)N(Cc1ccccc1)C(C)c1nc2ccccc2c(=O)n1-c1ccc(Cl)cc1 (centres undefined)
EC50 ([1]; Plasmodium falciparum, 3D7): 985 nM
EC50 ([2]; Plasmodium falciparum, W2): 1020 nM
CC50 [3]: > 1460 nM

CCN(CC)CCN1C(=O)c2ccc3c4c(ccc(c24)C1=O)C(=O)N(CCN(CC)CC)C3=O
EC50 ([1]; Plasmodium falciparum, 3D7): 244 nM
EC50 ([2]; Plasmodium falciparum, W2): 136 nM
CC50 [3]: 221 nM

Cc1ccc(S(=O)(=O)N2CCN(C(=O)c3ccccc3)C2c2ccccc2)cc1 (centres undefined)
EC50 ([1]; Plasmodium falciparum, 3D7): > 12500 nM
EC50 ([2]; Plasmodium falciparum, W2): 6290 nM
CC50 [3]: 10600 nM

CCCCCN(C(=O)CCc1ccccc1)C(CC)c1nc2ccccc2c(=O)n1-c1ccc(Cl)cc1C (centres undefined)
EC50 ([1]; Plasmodium falciparum, 3D7): > 1000 nM
EC50 ([2]; Plasmodium falciparum, W2): 1740 nM
CC50 [3]: > 305 nM

Cc1noc(C)c1S(=O)(=O)N(CC(C)C)C(C(=O)NC(CN1CCCC1)c1ccccc1)c1ccccc1 (centres undefined)
EC50 ([1]; Plasmodium falciparum, 3D7): 775 nM
EC50 ([2]; Plasmodium falciparum, W2): 1660 nM
CC50 [3]: 2820 nM

Cc1cccc(OCC(O)CN2CCN(CC(=O)c3ccc(Br)cc3)CC2)c1 (centres undefined)
EC50 ([1]; Plasmodium falciparum, 3D7): > 1250 nM
EC50 ([2]; Plasmodium falciparum, W2): 896 nM
CC50 [3]: 214 nM

COc1cc(C(=O)N2C(C(=O)Nc3ccccc3F)CSC2c2ccc(C(C)(C)C)cc2)cc(OC)c1OC (centres undefined)
EC50 ([1]; Plasmodium falciparum, 3D7): 1040 nM
EC50 ([2]; Plasmodium falciparum, W2): 1280 nM
CC50 [3]: > 2310 nM

Cc1ccc(C(=O)Nc2ccc(-c3nc4ccc(NC(=O)c5ccc(C)cc5)cc4[nH]3)cc2)cc1
EC50 ([1]; Plasmodium falciparum, 3D7): 1570 nM
EC50 ([2]; Plasmodium falciparum, W2): > 5780 nM
CC50 [3]: 1890 nM

COc1ccc(SC2CCN(C3CCOCC3)CC2)cc1
EC50 ([1]; Plasmodium falciparum, 3D7): > 1470 nM
EC50 ([2]; Plasmodium falciparum, W2): 358 nM
CC50 [3]: 240 nM

O=C(Nc1cc(Cl)cc(Cl)c1)Nc1cccc(C(F)(F)F)c1
EC50 ([1]; Plasmodium falciparum, 3D7): 13.8 nM
EC50 ([2]; Plasmodium falciparum, W2): > 12500 nM
CC50 [3]: 14900 nM

Cc1ccccc1N(CC(=O)NCC1CCCO1)C(=O)c1snc(C(N)=O)c1N (centres undefined)
EC50 ([1]; Plasmodium falciparum, 3D7): > 706 nM
EC50 ([2]; Plasmodium falciparum, W2): > 1250 nM
CC50 [3]: > 2400 nM

COc1ccc(Nc2nc3nonc3nc2NN=Cc2cc(Cl)ccc2O)cc1
EC50 ([1]; Plasmodium falciparum, 3D7): 1780 nM
EC50 ([2]; Plasmodium falciparum, W2): 1620 nM
CC50 [3]: > 3170 nM

CC(=O)N(C)C1=C(N2CCOCC2)C(=O)c2ccccc2C1=O
EC50 ([1]; Plasmodium falciparum, 3D7): 254 nM
EC50 ([2]; Plasmodium falciparum, W2): 288 nM
CC50 [3]: 590 nM

Nc1nc(N)c2cc(S(=O)(=O)N3CCCCC3)ccc2n1
EC50 ([1]; Plasmodium falciparum, 3D7): 20.2 nM
EC50 ([2]; Plasmodium falciparum, W2): > 1250 nM
CC50 [3]: 2670 nM

Oc1ccc(C=NN=C(Nc2ccccn2)c2ccccn2)c(O)c1
EC50 ([1]; Plasmodium falciparum, 3D7): > 1250 nM
EC50 ([2]; Plasmodium falciparum, W2): > 674 nM
CC50 [3]: > 245 nM

Cn1ncnc2c(=O)n(C)c(=O)nc1-2
EC50 ([1]; Plasmodium falciparum, 3D7): > 12500 nM
EC50 ([2]; Plasmodium falciparum, W2): 481 nM
CC50 [3]: 199 nM

COc1cnc(-c2ccccn2)nc1NC(C)C
EC50 ([1]; Plasmodium falciparum, 3D7): 712 nM
EC50 ([2]; Plasmodium falciparum, W2): 1100 nM
CC50 [3]: 2500 nM

COc1ccc(CCN(C(=S)Nc2ccccc2)C2CC(=O)N(c3ccc(F)cc3)C2=O)cc1OC (centres undefined)
EC50 ([1]; Plasmodium falciparum, 3D7): > 1740 nM
EC50 ([2]; Plasmodium falciparum, W2): 1560 nM
CC50 [3]: > 1910 nM

CCc1nc2ccc(NC(=O)c3ccncc3)cc2c(=O)n1Cc1cccc(OC)c1
EC50 ([1]; Plasmodium falciparum, 3D7): 1570 nM
EC50 ([2]; Plasmodium falciparum, W2): 427 nM
CC50 [3]: > 570 nM

CC1=C(CO)C(=O)O[C@@H]([C@@H](C)[C@H]2CC[C@H]3[C@@H]4C[C@H]5O[C@]56[C@@H](O)C=CC(=O)[C@]6(C)C4CC[C@]23C)C1 (some centres undefined)
EC50 ([1]; Plasmodium falciparum, 3D7): 4970 nM
EC50 ([2]; Plasmodium falciparum, W2): 1680 nM
CC50 [3]: 3630 nM

CCCCc1ccc(C(=O)NCCCN(C(=O)Nc2ccc([N+](=O)[O-])cc2)c2ccccc2)cc1
EC50 ([1]; Plasmodium falciparum, 3D7): > 1250 nM
EC50 ([2]; Plasmodium falciparum, W2): 1210 nM
CC50 [3]: 2680 nM

CCN(CC)Cc1ccc2c(NC(=O)c3ccc(C)s3)c(C(=O)OC)sc2n1
EC50 ([1]; Plasmodium falciparum, 3D7): 1230 nM
EC50 ([2]; Plasmodium falciparum, W2): 1190 nM
CC50 [3]: 1240 nM

Cc1oc2c(c1C(=O)NCc1cccnc1)C(=O)c1ccccc1C2=O
EC50 ([1]; Plasmodium falciparum, 3D7): 1500 nM
EC50 ([2]; Plasmodium falciparum, W2): 1750 nM
CC50 [3]: 1910 nM

FC(F)(F)c1cccc(Nc2nc3nonc3nc2Nc2ccc(Br)cc2)c1
EC50 ([1]; Plasmodium falciparum, 3D7): 7620 nM
EC50 ([2]; Plasmodium falciparum, W2): 5200 nM
CC50 [3]: 7130 nM

CCOC(=O)c1cnc2ccc(OC)cc2c1O
EC50 [1]: 727 nM and 245 nM
EC50 ([2]; Plasmodium falciparum, W2): 1300 nM
EC50 [2]: 721 nM
CC50 [3]: > 100000 nM

Cc1ccc(C=Cc2ccc(N(C)C)cc2)[n+](C)c1
EC50 [1]: 397 nM
EC50 [2]: 400 nM
CC50 [3]: > 60500 nM

COc1cccc2c1C(=O)c1c(O)c3c(c(O)c1C2=O)C[C@](O)(C(C)=O)C[C@@H]3O[C@H]1C[C@@H](N)[C@H](O)[C@H](C)O1
EC50 ([1]; Plasmodium falciparum, 3D7): 308 nM
EC50 ([2]; Plasmodium falciparum, W2): 213 nM
CC50 [3]: 129 nM

CN(C=Cc1sc2ccc3ccccc3c2[n+]1C)c1ccccc1
EC50 [1]: 239 nM
EC50 [2]: 153 nM
CC50 [3]: 64300 nM

O=C(NCCC1=CCCCC1)c1ccc2c(=O)n(-c3ccccc3)c(SCc3nc4ccccc4[nH]3)nc2c1
EC50 ([1]; Plasmodium falciparum, 3D7): > 1250 nM
EC50 ([2]; Plasmodium falciparum, W2): 1460 nM
CC50 [3]: > 912 nM

CCCCCCC1CCC(O)(C(C)(O)C(=O)NC2C(=O)N3NCCCC3C(=O)N(O)C(COC)C(=O)NCC(=O)N3NCCCC3C(=O)N(O)C(C)C(=O)OC2C)OC1C (centres undefined)
EC50 ([1]; Plasmodium falciparum, 3D7): 219 nM
EC50 ([2]; Plasmodium falciparum, W2): 124 nM
CC50 [3]: 197 nM

COc1ccc(CN2CCC(Sc3ncccn3)CC2)cc1
EC50 ([1]; Plasmodium falciparum, 3D7): > 1440 nM
EC50 ([2]; Plasmodium falciparum, W2): 950 nM
CC50 [3]: 702 nM

c1ccc(CNc2nc(-c3ccccn3)nnc2-c2ccccc2)cc1
EC50 ([1]; Plasmodium falciparum, 3D7): 182 nM
EC50 ([2]; Plasmodium falciparum, W2): 326 nM
CC50 [3]: 630 nM

CN[C@H]1C[C@@H]2O[C@](C)([C@H]1O)n1c3ccccc3c3c4c(c5c6ccccc6n2c5c31)C(=O)NC4
EC50 ([1]; Plasmodium falciparum, 3D7): 55.4 nM
EC50 ([2]; Plasmodium falciparum, W2): 52.1 nM
CC50 [3]: 32.3 nM

CC(C)CC[n+]1ccccc1C=Cc1ccc(N(C)C)cc1
EC50 [1]: 82.9 nM
EC50 [2]: 150 nM
CC50 [3]: > 30000 nM

CC1=CC[C@@H](/C(C)=C/c2csc(C)n2)OC(=O)C[C@H](O)C(C)(C)C(=O)[C@H](C)[C@@H](O)[C@@H](C)CCC1
EC50 ([1]; Plasmodium falciparum, 3D7): 85.4 nM
EC50 ([2]; Plasmodium falciparum, W2): 25.8 nM
CC50 [3]: 6.21 nM

O=C(Nc1cccc(Cl)c1)Nc1cc(C(F)(F)F)cc(C(F)(F)F)c1
EC50 ([1]; Plasmodium falciparum, 3D7): 3220 nM
EC50 ([2]; Plasmodium falciparum, W2): > 9990 nM
CC50 [3]: 19500 nM

CCN(CC)c1ccc(/C=C(/C#N)c2nc3ccccc3[nH]2)o1
EC50 ([1]; Plasmodium falciparum, 3D7): > 1250 nM
EC50 ([2]; Plasmodium falciparum, W2): > 702 nM
CC50 [3]: > 333 nM

Nc1nc(N)c2cc(S(=O)(=O)N3CCOCC3)ccc2n1
EC50 ([1]; Plasmodium falciparum, 3D7): 62.6 nM
EC50 ([2]; Plasmodium falciparum, W2): > 12500 nM
CC50 [3]: 5050 nM

O=C(Cc1cccnc1)N1CCC(Oc2ccncc2)CC1
EC50 ([1]; Plasmodium falciparum, 3D7): 626 nM
EC50 ([2]; Plasmodium falciparum, W2): 141 nM
CC50 [3]: 104 nM

Cc1ccccc1N=c1oc2ccc3ccccc3c2cc1-c1nc2ccccc2[nH]1
EC50 ([1]; Plasmodium falciparum, 3D7): > 997 nM
EC50 ([2]; Plasmodium falciparum, W2): > 1250 nM
CC50 [3]: > 2100 nM

CC(C)CC(N)C(=O)NCCCNc1nsc2ccccc12 (centres undefined)
EC50 ([1]; Plasmodium falciparum, 3D7): 2820 nM
EC50 ([2]; Plasmodium falciparum, W2): > 12100 nM
CC50 [3]: 15900 nM

CC[C@H](C)C[C@H]1CC[C@](O)([C@](C)(O)C(=O)N[C@@H]2C(=O)N3NCCC[C@@H]3C(=O)N(O)[C@@H](C)C(=O)NCC(=O)N3NCCC[C@H]3C(=O)N(O)[C@H](C)C(=O)O[C@H]2C(C)C)O[C@@H]1C
EC50 ([1]; Plasmodium falciparum, 3D7): 438 nM
EC50 ([2]; Plasmodium falciparum, W2): 567 nM
CC50 [3]: 465 nM

CN(C)c1cc[n+](Cc2c(Cl)cccc2Cl)cc1
EC50 ([1]; Plasmodium falciparum, 3D7): 140 nM
EC50 ([2]; Plasmodium falciparum, W2): 598 nM
CC50 [3]: 642 nM

CC(=O)Nc1ccc2c(c1)C(=O)N(C(C(=O)NCc1ccccc1)C1CCCCC1)[C@@H](Cc1ccc(O)cc1)C(=O)N2 (some centres undefined)
EC50 ([1]; Plasmodium falciparum, 3D7): 807 nM
EC50 ([2]; Plasmodium falciparum, W2): 555 nM
CC50 [3]: 659 nM

CCC1CC2CCC(O2)C(C)C(=O)OC(C)CC2CCC(O2)C(C)C(=O)OC(CC)CC2CCC(O2)C(C)C(=O)OC(C)CC2CCC(O2)C(C)C(=O)O1 (centres undefined)
EC50 ([1]; Plasmodium falciparum, 3D7): 162 nM
EC50 ([2]; Plasmodium falciparum, W2): 228 nM
CC50 [3]: 356 nM

COC(=O)c1ccc(C2C3=C(O)CC(c4ccc(C)cc4)CC3=Nc3ccccc3N2C(=O)c2cccs2)cc1 (centres undefined)
EC50 [1]: 328 nM and 88 nM
EC50 [2]: 808 nM and 264 nM
CC50 [3]: > 100000 nM

From ChEMBL document CHEMBL1156829 (Proc Natl Acad Sci U S A, 2008)
